pIC50: −log10 of the molar value. The source made the active and inactive calls. The rule behind the calls is not given here. Numbered stars: 1 amine (or outer) side, 2 acyl side, 3 side chain; on linkers, the order of the positions; unused ones are H or OH. Square brackets hold non-standard residues; d marks the D form. Peptide text beside a SMILES is read from it. X1 = O=C1c2ccccc2[C@@](O)(CN(Cc2ccccc2)[*:1])N1CC(=O)[*:2]; X2 = O=C1c2ccccc2[C@](O)(CN(Cc2ccccc2)[*:1])N1CC(=O)[*:2]; Thz = O=C(O)[C@@H]1CSCN1
Experiments:
[1] = Cytotoxicity against mouse L929 cells assessed as cell growth inhibition incubated for 48 hrs by MTT assay; assay type: toxicity, cell-based
HepG2 [2] = assay: Antitumor activity against human HepG2 cells assessed as inhibition of cell growth incubated for 48 hrs by MTT assay; assay type: functional, cell-based; conditions: HepG2, 48 h
HeLa [3] = assay: cells; conditions: Homo sapiens, 48 h
Description: Antitumor activity against human HeLa cells assessed as inhibition of cell growth incubated for 48 hrs by MTT assay

HeLa [4] = assay: Induction of cell cycle arrest in human HeLa cells assessed as accumulation at G2/M phase at 12.3 uM by RNAse A/PI staining based flow cytometric analysis; assay type: functional; conditions: time 12-48 hrs, TDE = time-dependent effect
HeLa [5] = assay: Effect on cell morphology in human HeLa cells assessed as appearance of round cells at 26.1 uM incubated for 12 to 24 hrs by scanning electron microscopic analysis; assay type: functional, cell-based; conditions: time 12-24 hrs
HeLa [6] = assay: Upregulation of cytochrome C expression in human HeLa cell cytosol at 6.2 to 24.6 uM incubated for 48 hrs by Western blotting analysis; assay type: functional, subcellular; conditions: dose 6.2-24.6 µM
HeLa [7] = assay: Effect on intracellular calcium ion concentration in human HeLa assessed as increase in fluorescence intensity at 12.3 uM by Fluo-3 AM staining based flow cytometric analysis; assay type: functional, cell-based
HepG2 [8] = assay: Effect on cell morphology in human HepG2 cells assessed as decrease in cell contact at 26.1 uM incubated for 48 hrs by fluorescent inverted microscopic analysis; assay type: functional, cell-based
HeLa [9] = assay: Effect on cell morphology in human HeLa cells assessed as decrease in cell contact at 26.1 uM incubated for 48 hrs by fluorescent inverted microscopic analysis; assay type: functional, cell-based
HeLa [10] = assay: Downregulation of MDM2 protein expression in human HeLa cells at 6.2 to 24.6 uM incubated for 48 hrs by Western blotting analysis; assay type: functional, cell-based; conditions: dose 6.2-24.6 µM
HeLa [11] = assay: Induction of mitochondrial membrane potential loss in human HeLa cells assessed as decrease in fluorescence intensity at 6.2 to 24.6 uM incubated for 12 to 48 hrs by Rhodamine 123 staining based flow cytometric analysis; assay type: functional, cell-based; conditions: dose 6.2-24.6 µM, time 12-48 hrs
HeLa [12] = assay: Upregulation of p53 protein expression in human HeLa cells at 6.2 to 24.6 uM incubated for 48 hrs by Western blotting analysis; assay type: functional, cell-based; conditions: dose 6.2-24.6 µM
HeLa [13] = assay: Effect on cell morphology in human HeLa cells assessed as disappearance of finger like protrusions at 26.1 uM incubated for 12 to 24 hrs by scanning electron microscopic analysis; assay type: functional, cell-based; conditions: time 12-24 hrs
HeLa [14] = assay: Antitumor activity against human HeLa cells assessed as inhibition of lactate dehydrogenase activity at 37.5 to 200 uM incubated for 48 hrs by Lactate dehydrogenase activity assay; assay type: functional, cell-based; conditions: dose 37.5-200 µM
HeLa [15] = assay: Effect on cell morphology in human HeLa cells assessed as complete disruption at 26.1 uM incubated for 48 hrs by scanning electron microscopic analysis; assay type: functional, cell-based
HepG2 [16] = assay: Effect on cell morphology in human HepG2 cells assessed as cell shrinkage at 26.1 uM incubated for 48 hrs by fluorescent inverted microscopic analysis; assay type: functional, cell-based
HeLa [17] = assay: Induction of mitochondrial membrane potential loss in human HeLa cells assessed as decrease in fluorescence intensity […] at 12.3 uM by Rhodamine 123 staining based flow cytometric analysis; assay type: functional, cell-based; conditions: time 12-48 hrs, TDE = time-dependent effect
HeLa [18] = assay: Effect on cell morphology in human HeLa cells assessed as cell shrinkage at 26.1 uM incubated for 48 hrs by fluorescent inverted microscopic analysis; assay type: functional, cell-based
HeLa [19] = assay: Antitumor activity against human HeLa cells assessed as inhibition of cell growth by MTT assay; assay type: functional, cell-based

COc1cccc2c1C(=O)c1c(O)c3c(c(O)c1C2=O)C[C@@](O)(C(=O)CO)C[C@@H]3O[C@H]1C[C@H](N)[C@H](O)[C@H](C)O1 [DOXORUBICIN]
IC50 at 48 h [1]: 326 µM
pIC50 (HepG2 [2]): 4.13

CC[C@H](C)[C@@H]1NC(=O)[C@H](CC(C)C)NC(=O)[C@@H]2CSCN2C(=O)CN2C(=O)c3ccccc3[C@]2(O)CN(Cc2ccccc2)C(=O)[C@@H]2CSCN2C1=O
IC50 at 48 h [1]: 293 µM
pIC50 (HepG2 [2]): 4.56
pIC50 (HeLa [3]): 4.16

CC[C@H](C)[C@@H]1NC(=O)[C@H](CC(C)C)NC(=O)[C@@H]2CSCN2C(=O)[C@H]2CSCN2C(=O)CN2C(=O)c3ccccc3[C@@]2(O)CN(Cc2ccccc2)C1=O
Activity (HeLa [4]): Tde
Activity (HeLa [5]): Active
Activity (HeLa [6]): Active
Activity (HeLa [7]): Active
Activity (HepG2 [8]): Active
Activity (HeLa [9]): Active
Activity (HeLa [10]): Active
Activity (HeLa [11]): Active
Activity (HeLa [12]): Active
Activity (HeLa [13]): Active
inhibition (HeLa [14]): Active
Activity (HeLa [15]): Active
Activity (HepG2 [16]): Active
Activity (HeLa [17]): Tde
Activity (HeLa [18]): Active

CC[C@H](C)[C@@H]1NC(=O)[C@H](CC(C)C)NC(=O)CN2C(=O)c3ccccc3[C@@]2(O)CN(Cc2ccccc2)C(=O)[C@@H]2CSCN2C(=O)[C@@H]2CSCN2C1=O
IC50 at 48 h [1]: 274 µM
pIC50 (HepG2 [2]): 4.31
pIC50 (HeLa [3]): 4.09

CC[C@H](C)[C@@H]1NC(=O)[C@H](CC(C)C)NC(=O)CN2C(=O)c3ccccc3[C@@]2(O)CN(Cc2ccccc2)C(=O)[C@@H]2CCCN2C(=O)[C@@H]2CCCN2C1=O (cyclo(IPP[X1]L))
IC50 at 48 h [1]: 284 µM
pIC50 (HepG2 [2]): 4.03
pIC50 (HeLa [3]): 3.98

CC[C@H](C)[C@@H]1NC(=O)CN2C(=O)c3ccccc3[C@]2(O)CN(Cc2ccccc2)C(=O)[C@H](CC(C)C)NC(=O)[C@@H]2CCCN2C(=O)[C@@H]2CCCN2C1=O (cyclo(IPPL[X2]))
IC50 at 48 h [1]: > 400 µM
pIC50 (HepG2 [2]): 4.42
pIC50 (HeLa [3]): 4.49

CC[C@H](C)[C@@H]1NC(=O)[C@H](CC(C)C)NC(=O)[C@@H]2CCCN2C(=O)CN2C(=O)c3ccccc3[C@]2(O)CN(Cc2ccccc2)C(=O)[C@@H]2CCCN2C1=O (cyclo(IP[X2]PL))
IC50 at 48 h [1]: > 400 µM
pIC50 (HeLa [19]): 4.55
pIC50 (HepG2 [2]): 4.47
pIC50 (HeLa [3]): 4.55

CC[C@H](C)[C@@H]1NC(=O)[C@H](CC(C)C)NC(=O)[C@@H]2CSCN2C(=O)[C@@H]2CSCN2C(=O)CN2C(=O)c3ccccc3[C@@]2(O)CN(Cc2ccccc2)C1=O
IC50 at 48 h [1]: 70.9 µM
pIC50 (HepG2 [2]): 4.61
pIC50 (HeLa [3]): 4.91

CC[C@H](C)[C@@H]1NC(=O)CN2C(=O)c3ccccc3[C@]2(O)CN(Cc2ccccc2)C(=O)[C@H](CC(C)C)NC(=O)[C@@H]2CSCN2C(=O)[C@@H]2CSCN2C1=O (cyclo(I[Thz][Thz]L[X2]))
IC50 at 48 h [1]: > 400 µM
pIC50 (HepG2 [2]): 4.57
pIC50 (HeLa [3]): 4.63

CC[C@H](C)[C@@H]1NC(=O)[C@H](CC(C)C)NC(=O)[C@@H]2CCCN2C(=O)[C@@H]2CCCN2C(=O)CN2C(=O)c3ccccc3[C@]2(O)CN(Cc2ccccc2)C1=O (cyclo(I[X2]PPL))
IC50 at 48 h [1]: > 400 µM
pIC50 (HeLa [19]): 4.44
pIC50 (HepG2 [2]): 4.39
pIC50 (HeLa [3]): 4.44

Source: ChEMBL document CHEMBL5120939, “Novel Isoindolinone-Based Analogs of the Natural Cyclic Peptide Fenestin A: Synthesis and Antitumor Activity” (ACS Med Chem Lett, 2022)
